Results taken from patent publication US4036957A, “Phenoxy compounds in combinations to suppress gastric bleeding in aspirin therapy” (priority 1975, dated 1977).

Key:
[1] = tested on: Carrageenan pleural effusion; test: Evans Blue-Carrageenan Pleural Effusion Test; assay type: in vivo, rats; conditions: rat, aspirin 150 mg/kg oral, P <0.05
Text: The effect of metaxalone (Compound 15) on the anti-inflammatory activity of aspirin in rats was studied using a modification of the Evans Blue-Carrageenan Pleural Effusion Test [Sancilio, L. F., Journal of Pharmacology and Experimental Therapeutics 168, 199-204 (1969)].

[2] = tested on: aspirin-induced gastric bleeding; assay type: in vivo, cats; conditions: cat, 30 min, aspirin 10 mg topical, no glyceryl guaiacolate
Method: Fasted cats weighing […] were anesthetized with phenobarbital sodium (130 mg/kg, i.p.). Glyceryl guaiacolate was administered intravenously for a total of 2 hrs. beginning 60 min. prior to the topical application of the aspirin (10 mg) to the gastric mucosa. Throughout the experiment, artificial gastric juice (USP, pH 1.3) bathed the mucosa by means of the specially designed chamber. The number of bleeding sites occurring at various exposure sites were recorded at 15, 30 and 60 min. Glyceryl guaiacolate was given at doses of 10 and 30 mg/kg/hr via a previously cannulated jugular vein using an infusion pump (Harvard Apparatus Co., Model 1202). […] An important point is that with 30 mg/kg/hr, i.v., of glyercyl guaiacolate there was no bleeding at 30 min. compared with an average of 14 bleeding sites when no glyceryl guaiacolate was adminsitered. A total of 23 cats were used and there was a minimum of 24 aspirin exposure sites for each dose of glyceryl guaiacolate.

## CC(=O)Oc1ccccc1C(=O)O [Aspirin, aspirin]
[1]; ± S.D.
  Pleural Fluid: 4.2 ± 0.28 mL
[1]
  % Decrease in Pleural Fluid vs Control: 38%
[2]
  average number of bleeding sites: 14 bleeding sites
